In ChEMBL document CHEMBL1201862, “PubChem BioAssay data set” (2004):
The source made the active and inactive calls.

Experiments:
[1] = molecular target: Genome polyprotein (Hepatitis C virus, UniProt Q2Q167); test: disruption of hepatitis C core self-association – biochemical, TR-FRET, dose response (AID 2159); design: species or system Hepacivirus hominis;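 further: blocks dimerization of HCV core protein measured by TR-FRET between tagged core106 pairs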
[2] = molecular target: T1, Calpain-2 catalytic subunit (Sus scrofa, UniProt P43367); test: m-calpain protease blockers, concentration series – biochemical, fluorogenic peptide substrate, dose response (AID 1420); assay type: functional
T1 sequence (P43367 whole entry): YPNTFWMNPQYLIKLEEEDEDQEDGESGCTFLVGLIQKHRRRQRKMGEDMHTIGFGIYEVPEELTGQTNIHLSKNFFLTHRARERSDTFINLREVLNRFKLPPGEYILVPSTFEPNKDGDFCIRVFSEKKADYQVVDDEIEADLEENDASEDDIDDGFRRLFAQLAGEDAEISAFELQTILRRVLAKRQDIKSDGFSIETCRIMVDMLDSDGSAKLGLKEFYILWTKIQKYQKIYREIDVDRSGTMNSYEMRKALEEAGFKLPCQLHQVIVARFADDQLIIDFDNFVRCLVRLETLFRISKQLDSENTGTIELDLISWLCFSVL

[3] = molecular target: Induced myeloid leukemia cell differentiation protein Mcl-1 (Homo sapiens, UniProt Q07820); assay type: functional
[4] = molecular target: C-C chemokine receptor type 6 (Homo sapiens, UniProt P51684); test: antagonism of CCR6 beta-arrestin recruitment – cell-based, luminescent beta-arrestin readout, dose response (AID 504728); assay type: functional
[5] = molecular target: Beta-galactosidase (Escherichia coli, UniProt Q8VNN2); test: detection-enzyme interference by beta-gal modulators – biochemical, E. coli enzyme, set 3, artefact control for CCR6 antagonist project, dose response (AID 504712); assay type: functional
[6] = molecular target: Eukaryotic translation initiation factor 4E (Mus musculus, UniProt P63073); test: blockers of eIF4G binding by eIF4E – biochemical, TR-FRET, dose response (AID 855); assay type: functional;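 further: potency for disrupting eIF4E binding to eIF4GI seen as loss of FRET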
[7] = molecular target: T2, Carboxy-terminal domain RNA polymerase II polypeptide A small phosphatase 1 (Homo sapiens, UniProt Q9GZU7); test: CTDSP1 inhibitors, concentration-response, biochemical, absorbance readout, ultra-high-throughput screen actives (AID 540297); assay type: functional
T2 sequence (Q9GZU7 whole entry): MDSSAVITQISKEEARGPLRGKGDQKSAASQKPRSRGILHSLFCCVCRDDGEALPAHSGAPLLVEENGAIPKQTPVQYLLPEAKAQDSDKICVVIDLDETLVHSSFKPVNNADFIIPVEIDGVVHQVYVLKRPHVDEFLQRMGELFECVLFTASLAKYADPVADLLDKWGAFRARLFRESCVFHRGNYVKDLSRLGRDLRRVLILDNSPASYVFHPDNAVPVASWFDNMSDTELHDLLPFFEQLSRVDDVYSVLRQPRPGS

[8] = molecular target: T3, Low molecular weight phosphotyrosine protein phosphatase (Homo sapiens, UniProt P24666); assay type: functional; settings: read-out: IC50_Mean
T3 sequence (P24666 whole entry): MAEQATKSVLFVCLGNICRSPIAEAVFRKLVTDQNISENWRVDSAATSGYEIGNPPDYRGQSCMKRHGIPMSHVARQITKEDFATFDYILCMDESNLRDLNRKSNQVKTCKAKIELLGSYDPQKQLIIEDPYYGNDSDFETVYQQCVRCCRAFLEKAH

[9] = molecular target: T3, Low molecular weight phosphotyrosine protein phosphatase; assay type: functional; settings: read-out: IC50_Mean; remark: listed apart in the source
[10] = molecular target: T4, G-protein coupled receptor 35 (Homo sapiens, UniProt Q9HC97); test: inhibition of zaprinast-stimulated GPR35 beta-arrestin translocation – imaging, U2OS, beta-arrestin-GFP, zaprinast agonist, primary screen (AID 2058); assay type: functional;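 further: antagonist potency meaning inhibition of agonist-induced arrestin redistribution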
[11] = molecular target: T4, G-protein coupled receptor 35; test: SAR Analysis for the identification of Selective Antagonists of ERK1/2 Activity in GPR35-Overexpressing U2OS Cells. [Related pubchem assays: 2079, 2058 ]; assay type: functional, cell-based
[12] = molecular target: Tyrosine-protein phosphatase non-receptor type 12 (Homo sapiens, UniProt Q05209); test: SAR Selectivity Analysis of small molecule inhibitors of PEST using pCAP in a fluorescence assay. [Related pubchem assays (depositor defined):AID1779, AID1784, AID2135]; assay type: functional
[13] = molecular target: T5, Tyrosine-protein phosphatase non-receptor type 22 (Homo sapiens, UniProt Q9Y2R2); test: SAR LYP1 Fluorescent Assay using OMFP substrate for In Vitro dose response studies - Set 3. [Related pubchem assays (depositor defined):AID1779, AID1784, AID2140, AID2686]; assay type: functional
[14] = molecular target: T5, Tyrosine-protein phosphatase non-receptor type 22; test: inhibition of lymphoid tyrosine phosphatase LYP – biochemical, pCAP fluorogenic substrate, fluorescence, set 3, SAR follow-up (AID 449727); assay type: functional
[15] = molecular target: G-protein coupled receptor 55 (Homo sapiens, UniProt Q9Y2T6); test: blockers of GPR55 signalling, imaged – imaging, image-based, counter-screen for GPR35 antagonist project, SAR follow-up (AID 2397); assay type: functional
[16] = molecular target: 26S proteasome non-ATPase regulatory subunit 14 (Homo sapiens, UniProt O00487); test: inhibition of proteasome subunit RPN11 – biochemical, fluorescence polarization, uHTS hits, confirmation (AID 602368); assay type: functional
[17] = molecular target: 72 kDa type IV collagenase (Homo sapiens, UniProt P08253); test: Dose Response validation of uHTS RPN11 inhibitor hits using a MMP-2 Fluorescence assay.; assay type: functional
[18] = molecular target: Prothrombin (Bos taurus, UniProt P00735); test: thrombin protease inhibitors – biochemical, fluorescence polarization, uHTS hits, dose response (AID 602369); assay type: functional
[19] = HEK-293T cell viability reduction – luminescence, B-cell screen hits, cytotoxicity control for BCR NF-kB inhibitor project, dose response (AID 489021); assay type: functional, cell-based;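 further: HEK-293T cells carrying an NF-kB luciferase reporter; cells exposed to compound for about 14 hours before viability readout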
[20] = molecular target: T6, RNA-binding protein pos-1 (Caenorhabditis elegans, UniProt G5EF15); test: disruptors of C. elegans POS-1 RNA interaction – biochemical, fluorescence polarization, dose response (AID 1964);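 further: purified POS-1 fused to maltose binding protein made in E. coli; potency of compounds blocking POS-1 binding to fluorescent RNA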
T6 sequence (G5EF15 whole entry): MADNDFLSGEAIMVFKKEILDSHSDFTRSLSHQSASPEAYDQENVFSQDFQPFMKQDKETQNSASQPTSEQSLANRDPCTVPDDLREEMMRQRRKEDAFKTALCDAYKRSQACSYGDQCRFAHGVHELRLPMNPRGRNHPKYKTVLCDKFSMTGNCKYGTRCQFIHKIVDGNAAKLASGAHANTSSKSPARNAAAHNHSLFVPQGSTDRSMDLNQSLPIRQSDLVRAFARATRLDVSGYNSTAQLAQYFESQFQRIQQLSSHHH

[21] = molecular target: T7, Zinc finger protein mex-5 (Caenorhabditis elegans, UniProt Q9XUB2); test: potency of MEX-5 RNA-binding blockers – biochemical, C. elegans, fluorescence polarization, dose response (AID 1960)
T7 sequence (Q9XUB2 whole entry): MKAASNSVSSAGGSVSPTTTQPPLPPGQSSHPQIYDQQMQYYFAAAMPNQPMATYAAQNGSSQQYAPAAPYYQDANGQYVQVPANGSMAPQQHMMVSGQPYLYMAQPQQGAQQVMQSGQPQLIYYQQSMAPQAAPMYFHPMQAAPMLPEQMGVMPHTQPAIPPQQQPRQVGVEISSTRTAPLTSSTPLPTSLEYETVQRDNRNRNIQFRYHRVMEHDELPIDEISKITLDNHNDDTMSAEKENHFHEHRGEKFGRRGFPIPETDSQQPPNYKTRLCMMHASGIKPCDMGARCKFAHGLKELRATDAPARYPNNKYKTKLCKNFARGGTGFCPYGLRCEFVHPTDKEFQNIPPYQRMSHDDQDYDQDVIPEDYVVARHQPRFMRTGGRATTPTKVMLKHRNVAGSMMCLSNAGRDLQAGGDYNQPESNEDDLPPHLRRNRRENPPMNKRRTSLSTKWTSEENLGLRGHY

[22] = molecular target: Neurotensin receptor type 1 (Homo sapiens, UniProt P30989); assay type: functional;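 further: Image-based confirmatory dose-response assay measuring agonist activity at NTR1; NTR1-expressing U2OS osteosarcoma cells imaged for beta-arrestin GFP spot formation; agonist potency where compounds increase beta-arrestin recruitment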
Sequence of Neurotensin receptor type 1 (P30989 whole entry): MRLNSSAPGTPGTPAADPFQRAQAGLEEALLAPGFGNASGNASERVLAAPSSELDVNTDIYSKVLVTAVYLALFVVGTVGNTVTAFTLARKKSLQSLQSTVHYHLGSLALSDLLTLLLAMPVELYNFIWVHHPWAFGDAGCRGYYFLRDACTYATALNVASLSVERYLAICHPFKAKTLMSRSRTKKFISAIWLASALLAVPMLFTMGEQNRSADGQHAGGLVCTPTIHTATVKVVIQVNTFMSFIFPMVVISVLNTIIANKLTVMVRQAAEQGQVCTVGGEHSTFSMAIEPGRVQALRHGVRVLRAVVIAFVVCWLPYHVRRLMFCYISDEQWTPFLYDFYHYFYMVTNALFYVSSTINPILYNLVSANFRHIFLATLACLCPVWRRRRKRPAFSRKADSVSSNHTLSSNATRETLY

T5 sequence (Q9Y2R2 whole entry): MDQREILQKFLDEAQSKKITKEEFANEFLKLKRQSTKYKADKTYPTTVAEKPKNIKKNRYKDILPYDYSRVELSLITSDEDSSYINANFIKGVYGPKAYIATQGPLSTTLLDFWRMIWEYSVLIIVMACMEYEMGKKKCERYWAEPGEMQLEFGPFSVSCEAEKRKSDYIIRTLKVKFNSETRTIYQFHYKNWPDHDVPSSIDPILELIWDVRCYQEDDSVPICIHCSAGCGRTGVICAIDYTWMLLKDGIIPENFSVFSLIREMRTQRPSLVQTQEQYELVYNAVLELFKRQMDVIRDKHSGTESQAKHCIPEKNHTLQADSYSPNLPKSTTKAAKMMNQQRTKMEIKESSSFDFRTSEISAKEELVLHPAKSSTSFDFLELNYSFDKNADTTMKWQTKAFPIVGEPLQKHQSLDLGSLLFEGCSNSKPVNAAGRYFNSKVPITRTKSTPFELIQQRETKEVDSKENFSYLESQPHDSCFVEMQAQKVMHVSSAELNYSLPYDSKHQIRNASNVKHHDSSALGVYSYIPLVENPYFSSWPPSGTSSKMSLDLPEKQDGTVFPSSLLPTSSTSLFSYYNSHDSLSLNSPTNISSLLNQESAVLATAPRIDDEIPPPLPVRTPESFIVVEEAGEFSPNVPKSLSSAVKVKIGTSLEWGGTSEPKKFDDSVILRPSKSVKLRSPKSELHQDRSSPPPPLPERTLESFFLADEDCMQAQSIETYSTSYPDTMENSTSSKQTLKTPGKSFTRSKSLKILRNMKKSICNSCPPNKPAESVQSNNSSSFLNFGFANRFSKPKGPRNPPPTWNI
T4 sequence (Q9HC97 whole entry): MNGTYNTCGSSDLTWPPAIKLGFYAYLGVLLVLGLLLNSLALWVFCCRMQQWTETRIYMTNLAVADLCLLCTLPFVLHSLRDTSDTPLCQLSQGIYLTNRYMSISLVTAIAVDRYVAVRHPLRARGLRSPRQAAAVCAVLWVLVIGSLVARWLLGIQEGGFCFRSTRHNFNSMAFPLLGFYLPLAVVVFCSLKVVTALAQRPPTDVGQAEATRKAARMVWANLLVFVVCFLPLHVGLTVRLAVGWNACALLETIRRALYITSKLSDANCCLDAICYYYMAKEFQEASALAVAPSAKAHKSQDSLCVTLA
Sequence of C-C chemokine receptor type 6 (P51684 whole entry): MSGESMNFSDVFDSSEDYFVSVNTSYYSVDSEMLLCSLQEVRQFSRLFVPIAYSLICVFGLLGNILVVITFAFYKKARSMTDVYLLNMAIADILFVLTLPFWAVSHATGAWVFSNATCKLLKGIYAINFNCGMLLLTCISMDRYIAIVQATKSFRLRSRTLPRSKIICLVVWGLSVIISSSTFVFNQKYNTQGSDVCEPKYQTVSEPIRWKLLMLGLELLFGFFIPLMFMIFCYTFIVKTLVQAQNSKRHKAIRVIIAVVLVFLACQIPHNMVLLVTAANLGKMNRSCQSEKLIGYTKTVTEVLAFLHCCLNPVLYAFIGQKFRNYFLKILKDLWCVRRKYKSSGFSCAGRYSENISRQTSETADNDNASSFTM
Sequence of 26S proteasome non-ATPase regulatory subunit 14 (O00487 whole entry): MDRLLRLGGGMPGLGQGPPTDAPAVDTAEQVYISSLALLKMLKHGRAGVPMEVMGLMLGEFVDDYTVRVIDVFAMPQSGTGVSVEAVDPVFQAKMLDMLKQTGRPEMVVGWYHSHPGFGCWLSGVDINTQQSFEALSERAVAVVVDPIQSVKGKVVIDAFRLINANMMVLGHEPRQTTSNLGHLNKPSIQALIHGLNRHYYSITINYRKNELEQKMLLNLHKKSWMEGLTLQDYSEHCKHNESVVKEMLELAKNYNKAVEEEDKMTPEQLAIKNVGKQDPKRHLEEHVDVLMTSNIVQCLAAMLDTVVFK
Sequence of Beta-galactosidase (Q8VNN2 whole entry): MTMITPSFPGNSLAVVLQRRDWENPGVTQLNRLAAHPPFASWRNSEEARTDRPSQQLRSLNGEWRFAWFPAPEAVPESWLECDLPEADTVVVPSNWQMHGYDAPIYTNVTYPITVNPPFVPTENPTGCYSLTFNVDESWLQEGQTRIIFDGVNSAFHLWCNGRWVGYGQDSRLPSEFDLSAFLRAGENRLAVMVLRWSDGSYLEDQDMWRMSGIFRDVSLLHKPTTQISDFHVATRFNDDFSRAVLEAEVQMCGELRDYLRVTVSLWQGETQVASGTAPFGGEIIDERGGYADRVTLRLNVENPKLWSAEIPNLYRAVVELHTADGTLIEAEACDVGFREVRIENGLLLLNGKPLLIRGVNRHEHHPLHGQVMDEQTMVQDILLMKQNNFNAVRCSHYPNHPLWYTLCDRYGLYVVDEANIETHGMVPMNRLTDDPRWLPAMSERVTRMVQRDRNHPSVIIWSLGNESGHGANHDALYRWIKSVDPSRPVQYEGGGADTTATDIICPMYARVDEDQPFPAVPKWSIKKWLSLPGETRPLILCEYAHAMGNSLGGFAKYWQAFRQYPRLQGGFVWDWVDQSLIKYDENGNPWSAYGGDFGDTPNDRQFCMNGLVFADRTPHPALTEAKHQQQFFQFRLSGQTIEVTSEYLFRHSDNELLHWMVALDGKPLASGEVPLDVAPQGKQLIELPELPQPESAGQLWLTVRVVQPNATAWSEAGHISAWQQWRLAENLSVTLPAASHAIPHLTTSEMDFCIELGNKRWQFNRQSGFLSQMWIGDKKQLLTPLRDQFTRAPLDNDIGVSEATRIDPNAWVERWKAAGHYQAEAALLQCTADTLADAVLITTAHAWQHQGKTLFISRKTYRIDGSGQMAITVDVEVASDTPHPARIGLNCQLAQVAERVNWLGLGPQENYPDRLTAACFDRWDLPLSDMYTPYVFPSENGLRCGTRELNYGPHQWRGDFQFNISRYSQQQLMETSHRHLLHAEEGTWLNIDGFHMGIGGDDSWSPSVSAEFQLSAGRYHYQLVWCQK
Sequence of Tyrosine-protein phosphatase non-receptor type 12 (Q05209 whole entry): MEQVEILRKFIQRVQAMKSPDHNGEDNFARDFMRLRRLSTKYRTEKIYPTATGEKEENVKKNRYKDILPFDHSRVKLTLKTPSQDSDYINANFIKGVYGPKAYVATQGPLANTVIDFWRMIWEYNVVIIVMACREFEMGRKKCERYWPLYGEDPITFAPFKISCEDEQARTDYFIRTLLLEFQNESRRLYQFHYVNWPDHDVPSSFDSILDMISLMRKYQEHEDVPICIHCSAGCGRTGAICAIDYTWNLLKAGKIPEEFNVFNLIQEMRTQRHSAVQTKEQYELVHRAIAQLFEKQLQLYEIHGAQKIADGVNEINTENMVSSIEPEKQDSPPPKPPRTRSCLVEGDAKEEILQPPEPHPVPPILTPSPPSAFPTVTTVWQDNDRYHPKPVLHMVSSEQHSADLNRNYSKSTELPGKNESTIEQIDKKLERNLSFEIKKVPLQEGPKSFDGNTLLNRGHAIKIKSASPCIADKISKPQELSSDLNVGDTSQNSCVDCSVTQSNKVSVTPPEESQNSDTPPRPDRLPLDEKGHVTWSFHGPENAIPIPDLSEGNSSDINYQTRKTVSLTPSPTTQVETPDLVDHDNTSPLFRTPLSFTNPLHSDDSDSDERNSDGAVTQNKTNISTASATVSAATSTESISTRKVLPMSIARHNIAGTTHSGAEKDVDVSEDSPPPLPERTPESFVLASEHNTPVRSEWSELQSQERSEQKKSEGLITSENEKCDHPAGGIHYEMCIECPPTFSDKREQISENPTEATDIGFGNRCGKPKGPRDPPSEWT
Sequence of Genome polyprotein (Q2Q167 whole entry): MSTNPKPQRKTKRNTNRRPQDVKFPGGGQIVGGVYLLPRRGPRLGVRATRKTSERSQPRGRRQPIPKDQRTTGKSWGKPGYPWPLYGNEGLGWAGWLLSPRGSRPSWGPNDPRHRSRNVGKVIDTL
Sequence of 72 kDa type IV collagenase (P08253 whole entry): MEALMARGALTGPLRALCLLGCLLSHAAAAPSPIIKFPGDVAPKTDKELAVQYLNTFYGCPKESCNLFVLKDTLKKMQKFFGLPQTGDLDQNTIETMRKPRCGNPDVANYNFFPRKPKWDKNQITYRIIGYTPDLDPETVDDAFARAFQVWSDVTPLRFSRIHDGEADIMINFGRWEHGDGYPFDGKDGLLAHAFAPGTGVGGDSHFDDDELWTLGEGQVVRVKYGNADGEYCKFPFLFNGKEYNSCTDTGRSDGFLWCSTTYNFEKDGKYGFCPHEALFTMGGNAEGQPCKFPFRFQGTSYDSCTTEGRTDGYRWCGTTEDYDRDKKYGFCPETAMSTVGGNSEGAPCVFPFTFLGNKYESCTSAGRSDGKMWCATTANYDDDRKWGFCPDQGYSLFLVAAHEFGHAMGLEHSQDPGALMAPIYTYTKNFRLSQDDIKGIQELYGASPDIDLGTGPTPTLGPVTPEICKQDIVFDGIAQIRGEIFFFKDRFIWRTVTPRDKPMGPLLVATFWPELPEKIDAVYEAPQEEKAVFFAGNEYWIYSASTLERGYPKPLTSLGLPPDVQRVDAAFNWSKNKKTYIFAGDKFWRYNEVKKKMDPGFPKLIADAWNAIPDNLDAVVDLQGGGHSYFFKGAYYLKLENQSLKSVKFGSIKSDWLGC

O=C(N=Nc1c(O)[nH]c2ccc([N+](=O)[O-])cc12)c1cc(-c2ccccc2Cl)nc2ccccc12
IC50 [1]: > 49.8 µM (not active) | IC50 [2]: 4.56 µM (not active) | IC50 [3]: 1.18 µM (active) | IC50 [4]: > 66.6 µM (inactive) | IC50 [5]: > 66.6 µM (inactive) | IC50 [6]: > 64 µM (inactive) | IC50 [7]: 0.711 µM (active) | IC50 [8]: 2.89 µM (active) | IC50 [9]: 1.98 µM (active)

COc1ccc(/C=C2\SC(=S)N(CCCC(=O)Nc3cccc(C(=O)O)c3)C2=O)cc1OC
IC50 [10]: 0.564 µM (active) | IC50 [11]: 1.2 µM (active) | IC50 [12]: 58.8 µM (active) | IC50 [13]: > 100 µM (inactive) | IC50 [14]: 95.9 µM (active) | IC50 [15]: > 32 µM (inactive) | IC50 [16]: 17.7 µM (active) | IC50 [17]: > 100 µM (inactive) | IC50 [18]: 23.9 µM (active)

NC(=S)N=Nc1c(O)n(Cc2ccccc2)c2ccccc12
IC50 [19]: > 80 µM (inactive)

O=C(CC1Nc2ccccc2NC1=O)Nc1cc(Cl)cc(Cl)c1 (configuration not stated)
EC50 [20]: 152 µM (active) | EC50 [21]: > 300 µM (not active) | EC50 [22]: 8.64 µM (active)
